In ChEMBL document CHEMBL1687748 (Antimicrob Agents Chemother, 2009):

How the values were obtained:
Format in all cases: functional
Bacillus anthracis [1] = test: Total sensitive organism counts of toxin and capsule gene-deficient Bacillus anthracis Sterne in hollow-fiber pharmacodynamic infection model at 200 mg, qd by Bayesian method
Bacillus anthracis [2] = test: Growth rate constant of vegetative-phase cells going to spore phase in toxin and capsule gene-deficient Bacillus anthracis Sterne in hollow-fiber pharmacodynamic infection model at 50 mg, qd by Bayesian method
Bacillus anthracis [3] = test: Growth rate constant of spore-phase cells going to vegetative phase in toxin and capsule gene-deficient Bacillus anthracis Sterne in hollow-fiber pharmacodynamic infection model at 100 mg, qd by Bayesian method
Bacillus anthracis [4] = test: Growth rate constant of spore-phase cells going to vegetative phase in toxin and capsule gene-deficient Bacillus anthracis Sterne in hollow-fiber pharmacodynamic infection model administered for every 24 hrs
Bacillus anthracis [5] = test: Kill rate constant for compound-sensitive toxin and capsule gene-deficient Bacillus anthracis Sterne in hollow-fiber pharmacodynamic infection model at 200 mg administered as continuous infusion by Bayesian method
Bacillus anthracis [6] = test: Total spore counts of toxin and capsule gene-deficient Bacillus anthracis Sterne in hollow-fiber pharmacodynamic infection model at 200 mg, qd by Bayesian method
Bacillus anthracis [7] = test: Growth rate constant of spore-phase cells going to vegetative phase in toxin and capsule gene-deficient Bacillus anthracis Sterne in hollow-fiber pharmacodynamic infection model at 150 mg administered as continuous infusion by Bayesian method
Bacillus anthracis [8] = test: Total spore counts of toxin and capsule gene-deficient Bacillus anthracis Sterne in hollow-fiber pharmacodynamic infection model at 150 mg administered as continuous infusion by Bayesian method
Bacillus anthracis [9] = test: Total spore counts of toxin and capsule gene-deficient Bacillus anthracis Sterne in hollow-fiber pharmacodynamic infection model administered for every 24 hrs
Bacillus anthracis [10] = test: Hill constant for compound-sensitive toxin and capsule gene-deficient Bacillus anthracis Sterne in hollow-fiber pharmacodynamic infection model at 150 mg administered as continuous infusion by Bayesian method
Bacillus anthracis [11] = test: Total sensitive organism counts of toxin and capsule gene-deficient Bacillus anthracis Sterne in hollow-fiber pharmacodynamic infection model administered for every 24 hrs
Bacillus anthracis [12] = test: Total sensitive organism counts of toxin and capsule gene-deficient Bacillus anthracis Sterne in hollow-fiber pharmacodynamic infection model at 100 mg administered as continuous infusion by Bayesian method
Bacillus anthracis [13] = test: Total sensitive organism counts of toxin and capsule gene-deficient Bacillus anthracis Sterne in hollow-fiber pharmacodynamic infection model at 100 mg, qd by Bayesian method
Bacillus anthracis [14] = test: Kill rate constant for compound-sensitive toxin and capsule gene-deficient Bacillus anthracis Sterne in hollow-fiber pharmacodynamic infection model at 100 mg, qd by Bayesian method
Bacillus anthracis [15] = test: Growth rate constant of spore-phase cells going to vegetative phase in toxin and capsule gene-deficient Bacillus anthracis Sterne in hollow-fiber pharmacodynamic infection model at 250 mg, qd by Bayesian method
Bacillus anthracis [16] = test: Hill constant for compound-sensitive toxin and capsule gene-deficient Bacillus anthracis Sterne in hollow-fiber pharmacodynamic infection model administered as continuous infusion
Bacillus anthracis [17] = test: Total spore counts of toxin and capsule gene-deficient Bacillus anthracis Sterne in hollow-fiber pharmacodynamic infection model at 250 mg, qd by Bayesian method
Bacillus anthracis [18] = test: Total spore counts of toxin and capsule gene-deficient Bacillus anthracis Sterne in hollow-fiber pharmacodynamic infection model at 250 mg administered as continuous infusion by Bayesian method
Bacillus anthracis [19] = test: Growth rate constant of vegetative-phase cells going to spore phase in toxin and capsule gene-deficient Bacillus anthracis Sterne in hollow-fiber pharmacodynamic infection model at 150 mg administered as continuous infusion by Bayesian method
Bacillus anthracis [20] = test: Hill constant for compound-sensitive toxin and capsule gene-deficient Bacillus anthracis Sterne in hollow-fiber pharmacodynamic infection model at 150 mg, qd by Bayesian method
Bacillus anthracis [21] = test: Growth rate constant of vegetative-phase cells going to spore phase in toxin and capsule gene-deficient Bacillus anthracis Sterne in hollow-fiber pharmacodynamic infection model at 250 mg administered as continuous infusion by Bayesian method
Bacillus anthracis [22] = test: Hill constant for compound-sensitive toxin and capsule gene-deficient Bacillus anthracis Sterne in hollow-fiber pharmacodynamic infection model at 100 mg administered as continuous infusion by Bayesian method
Bacillus anthracis [23] = test: Total sensitive organism counts of toxin and capsule gene-deficient Bacillus anthracis Sterne in hollow-fiber pharmacodynamic infection model at 150 mg, qd by Bayesian method
Bacillus anthracis [24] = test: Growth rate constant of vegetative-phase cells going to spore phase in toxin and capsule gene-deficient Bacillus anthracis Sterne in hollow-fiber pharmacodynamic infection model at 100 mg, qd by Bayesian method
Bacillus anthracis [25] = test: Kill rate constant for compound-sensitive toxin and capsule gene-deficient Bacillus anthracis Sterne in hollow-fiber pharmacodynamic infection model administered as continuous infusion
Bacillus anthracis [26] = test: Hill constant for compound-sensitive toxin and capsule gene-deficient Bacillus anthracis Sterne in hollow-fiber pharmacodynamic infection model at 250 mg, qd by Bayesian method
Bacillus anthracis [27] = test: Kill rate constant for compound-sensitive toxin and capsule gene-deficient Bacillus anthracis Sterne in hollow-fiber pharmacodynamic infection model administered for every 24 hrs
Bacillus anthracis [28] = test: Total sensitive organism counts of toxin and capsule gene-deficient Bacillus anthracis Sterne in hollow-fiber pharmacodynamic infection model at 150 mg administered as continuous infusion by Bayesian method
Bacillus anthracis [29] = test: Growth rate constant for compound-sensitive toxin and capsule gene-deficient Bacillus anthracis Sterne in hollow-fiber pharmacodynamic infection model administered for every 24 hrs
Bacillus anthracis [30] = test: Total spore counts of toxin and capsule gene-deficient Bacillus anthracis Sterne in hollow-fiber pharmacodynamic infection model administered as continuous infusion
Bacillus anthracis [31] = test: Kill rate constant for compound-sensitive toxin and capsule gene-deficient Bacillus anthracis Sterne in hollow-fiber pharmacodynamic infection model at 200 mg, qd by Bayesian method
Bacillus anthracis [32] = test: Growth rate constant for compound-sensitive toxin and capsule gene-deficient Bacillus anthracis Sterne in hollow-fiber pharmacodynamic infection model at 250 mg administered as continuous infusion by Bayesian method
Bacillus anthracis [33] = test: Growth rate constant for compound-sensitive toxin and capsule gene-deficient Bacillus anthracis Sterne in hollow-fiber pharmacodynamic infection model at 100 mg, qd by Bayesian method
Bacillus anthracis [34] = test: Kill rate constant for compound-sensitive toxin and capsule gene-deficient Bacillus anthracis Sterne in hollow-fiber pharmacodynamic infection model at 250 mg, qd by Bayesian method
Bacillus anthracis [35] = test: Kill rate constant for compound-sensitive toxin and capsule gene-deficient Bacillus anthracis Sterne in hollow-fiber pharmacodynamic infection model at 50 mg, qd by Bayesian method
Bacillus anthracis [36] = test: Growth rate constant of vegetative-phase cells going to spore phase in toxin and capsule gene-deficient Bacillus anthracis Sterne in hollow-fiber pharmacodynamic infection model administered as continuous infusion
Bacillus anthracis [37] = test: Kill rate constant for compound-sensitive toxin and capsule gene-deficient Bacillus anthracis Sterne in hollow-fiber pharmacodynamic infection model at 250 mg administered as continuous infusion by Bayesian method

Structure (SMILES): COc1c(N2C[C@@H]3CCCN[C@@H]3C2)c(F)cc2c(=O)c(C(=O)O)cn(C3CC3)c12 [MOXIFLOXACIN]
- CFU/ml (Bacillus anthracis [1]): 53600000
- Activity (Bacillus anthracis [2]): 0.0657 h⁻¹
- Activity (Bacillus anthracis [3]): 25.9 h⁻¹
- Activity (Bacillus anthracis [4]): 7.31 h⁻¹
- Activity (Bacillus anthracis [5]): 8.28 h⁻¹
- CFU/ml (Bacillus anthracis [6]): 2420000
- Activity (Bacillus anthracis [7]): 9.06 h⁻¹
- CFU/ml (Bacillus anthracis [8]): 1880000
- CFU/ml (Bacillus anthracis [9]): 1740000
- Activity (Bacillus anthracis [10]): 30 h⁻¹
- CFU/ml (Bacillus anthracis [11]): 41200000
- CFU/ml (Bacillus anthracis [12]): 20600000
- CFU/ml (Bacillus anthracis [13]): 28000000
- Activity (Bacillus anthracis [14]): 7.48 h⁻¹
- Activity (Bacillus anthracis [15]): 1.04 h⁻¹
- Activity (Bacillus anthracis [16]): 5.93 h⁻¹
- CFU/ml (Bacillus anthracis [17]): 2360000
- CFU/ml (Bacillus anthracis [18]): 1860000
- Activity (Bacillus anthracis [19]): 4.94 h⁻¹
- Activity (Bacillus anthracis [20]): 30 h⁻¹
- Activity (Bacillus anthracis [21]): 5.18 h⁻¹
- Activity (Bacillus anthracis [22]): 20.9 h⁻¹
- CFU/ml (Bacillus anthracis [23]): 21500000
- Activity (Bacillus anthracis [24]): 1.38 h⁻¹
- Activity (Bacillus anthracis [25]): 6.41 h⁻¹
- Activity (Bacillus anthracis [26]): 1 h⁻¹
- Activity (Bacillus anthracis [27]): 8.24 h⁻¹
- CFU/ml (Bacillus anthracis [28]): 23500000
- Activity (Bacillus anthracis [29]): 8.24 h⁻¹
- CFU/ml (Bacillus anthracis [30]): 1880000
- Activity (Bacillus anthracis [31]): 4.29 h⁻¹
- Activity (Bacillus anthracis [32]): 8.25 h⁻¹
- Activity (Bacillus anthracis [33]): 6.57 h⁻¹
- Activity (Bacillus anthracis [34]): 4.48 h⁻¹
- Activity (Bacillus anthracis [35]): 6.24 h⁻¹
- Activity (Bacillus anthracis [36]): 1.2 h⁻¹
- Activity (Bacillus anthracis [37]): 8.28 h⁻¹
